This is an account of results in patent US20190223483A1, “SENSORY MODIFIER COMPOUNDS” (CARGILL, INCORPORATED, priority 2017, published 2019).

SMILES strings stand for the structures.

A short description of this experiment: Roundtable assessment of astringency. In kind it is in vivo. The conditions noted are these: RebM 700 ppm, modifier between 0 ppm and about 500 ppm.

Experimental: For other sweetness attributes, the solutions were tested by a panel of at least four individuals that are highly-trained in tasting steviol glycoside solutions. The highly-trained panelists used a roundtable methodology to assess each sweetness attribute. To test each solution, the highly-trained panelists dispensed approximately 2 mL of each solution into their own mouths by transfer pipet, dispersed the solution by moving their tongues, and recorded a value for the particular sweetness attribute being tested. Between tasting solutions, the panelists were able to cleanse their palates with water. For each sweetness attribute, the panelist agreed on a descriptive scale with relative intensities assigned for each sweetness attribute and then recorded the values for each sweetness attribute against this. For example, this roundtable assessment of sweetness linger assigned a scale of 0 to 6 with a score of 0 indicating no sweetness linger and a score of 6 indicating extreme sweetness linger. Roundtable assessment of sweetness linger assigned a scale of 0 to 6 with a score of 0 indicating no sweetness linger and a score of 6 indicating extreme sweetness linger (0=none, 1=trace, 2=slight, 3=moderate, 4=definite, 5=strong, 6=extreme). Roundtable assessment of rounded assigned a scale of 0 to 3 with a score of 0 indicating spikey and a score of 3 indicating desirable rounded (0=none, 1=mostly spikey, some rounded, 2=mostly rounded, some spikey, 3=rounded). Roundtable assessment of mouthfeel assigned a scale of 0 to 2 with a score of 0 indicating water and a score of 2 indicating syrupy (0=water, 1=sucrosey, 2=syrupy). Roundtable assessment of bitterness assigned a scale of 0 to 6 with a score of 0 indicating no bitterness and a score of 6 indicating extreme sweetness linger (0=none, 1=trace, 2=slight, 3=moderate, 4=definite, 5=strong, 6=extreme). Roundtable assessment of off tastes assigned a scale of 0 to 6 with a score of 0 indicating no bitterness and a score of 6 indicating extreme off tastes (0=none, 1=trace, 2=slight, 3=moderate, 4=definite, 5=strong, 6=extreme).
Roundtable assessment of botanical notes assigned a scale of 0 to 5 with a score of 0 indicating no botanical notes and a score of 5 indicating strong (0=none, 1=trace, 2=slight, 3=moderate, 4=definite, 5=strong).
Solutions of steviol glycosides and sensory modifier compound were prepared at increasing ratios of sensory modifier to steviol glycoside by weight. […] The concentration of steviol glycosides was 700 ppm in each solution. The solutions were tested for astringency.

For the compound `O=C(/C=C/c1ccc(O)c(O)c1)O[C@@H](C(=O)O)[C@@H](OC(=O)/C=C/c1ccc(O)c(O)c1)C(=O)O` [tartaric backbone (cichoric acid), cichoric acid], the Astringency entry is reported as “imperceptible”.
